Assays:
in vivo = assay: in vivo; parameters: species or system NSG mice; details: mouse, 20 mg/kg
Experimental: Administration R oute p.o. i. p. i. v.
T 1/2 distribution (h) - - 0.11*** […]
Bars represent S.E.M. ( ***P<0.001, **P<0.01, t test).
(also on this page, place not known: plasma times treatment mice administration plasma times treatment mice administration mg/kg mg/kg Summary pharmacokinetic parameters mice. were measured daily administration mg/kg days. (***P<0.001, mg/kg DDA in plasma (p.o.) (p.o.) DDA in plasma (µM) i.p. i.v. (mg/kg) 20 T1/2 0.1 T1/2 elimination 1.0 T1/2 - Bioavailability (%EP) (µM) 370 Tmax 0.002 marrow 0.01 0.1 1 10 Control DDA DDA level (µM) ***)

SKMEL-28 cells = assay: Sterol analysis by GC/MS; type: cell-based, human; details: 2.5 µM DDA, 24 h
Experimental: Sterols in cell homogenates were extracted with a solvent mixture containing chloroform/methanol 2/1 (v/v) spiked with epicoprostanol as the internal standard. Lipids were partitioned in chloroform after the addition of saline and saponified by methanolic potassium hydroxide (0.5 N, 60 °C, 15 min). The fatty acids released were methylated with BF3-methanol (12%, 60 °C, 15 min) to not interfere with the chromatography of sterols. The sterols were re-extracted in hexane and silylated, as described previously. The trimethylsilylether derivatives of the sterols were separated by gas chromatography (GC) (Hewlett–Packard 6890 series) in a medium polarity capillary column RTX-65, (65% diphenyl 35% dimethyl polysiloxane, length 30 m, diameter 0.32 mm, film thickness 0.25 μm (Restesk, Evry, France)). The mass spectrometer (Agilent 5975 inert XL) in series with the GC was set up for the detection of positive ions. Ions were produced in the electron impact mode at 70 eV. Sterols were identified by the fragmentogram in the scanning mode and quantified by selective monitoring of the specific ions after normalization with the internal standard epicoprostanol and calibration with weighed standards. […]
Quantification of sterols ac cum ulation in SKMEL- 2 8 c ells either expressing LXRβ (shCT L) or with LXRβ (sh3 or sh4LXR β) k nock ed down after 24 h treatm ent with 2.5 µ M DD A or solvent vehicle. Anal yses were perform ed by GC/MS. f Quantification of sterols accumulated in m elanom a cells after 24 h treatm ent with 10 µM 22(R) HC, 1 µ M GW , 100 nM T O or solvent […]
vehicle. […]

primary AML cells = assay: Patient-derived primary AML cells engrafted into NSG mice; type: in vivo; details: three patients; 20 mg/kg/d i.p., 19 days
Experimental: The engraftment of human primary AML cells was performed on NSG mice. Briefly, human primary AML cells, HL60 cells or normal CD34+ cells were resuspended in PBS, and 0.8 × 10^6 to 2 × 10^6 viable trypan blue-negative cells were injected intravenously into NSG mice that had been previously irradiated for 24 h with 2.25 Gy. Two and a half weeks after the injection of human cells, mice were treated with DDA (20 mg/kg/day by IP injection) or vehicle as control for 2, 3 weeks, after which the engraftment of human AML and normal hematopoietic cells was measured in the bone marrow, spleen and brain by quantifying the percentage of hCD45+CD33+ cells by flow cytometry. The viability of AML cells was established by quantifying the percentage of hCD45+CD33+Annexin-V- cells.

B16F10 cells = assay: RT-qPCR of LXR-responsive genes; type: cell-based, mouse; details: 8 h, 2.5 µM DDA, 10 µM 22(R)HC, 1 µM GW, 100 nM TO, vs vehicle
Experimental: Total RNA was extracted from tumor cells or MEFs using an RNA Extraction kit (Qiagen) or Trizol (Invitrogen), respectively, and was quantified with NanoDrop. Complementary DNA (cDNA) synthesis was performed with 1 μg RNA iScript Reverse Transcriptase (Bio-Rad). 25 ng cDNA was amplified using SyBR Supermix (Bio-Rad). RNA expression of the different genes of interest (Supplementary Tables 1, 2) were determined using the ΔΔCT method, where the difference in the threshold cycle (ΔCT) values of the target gene and the housekeeping gene for each sample was normalized to the ΔCT value of the untreated sample.
Supplementary Fig. 4. a R egulat ion of LXR-responsive genes b y D DA and other k nown LXR
ligands in B16F10 and SKMEL- 28 cells transfected with s iRN A targeting LXRβ ( siLXRβ) or
with contro l siRN A scram ble (siSC). Cells were treated for 8 h with either solvent vehicle, 2.5
µM DD A, 10 µM 22(R) hydrox ycholesterol (22(R)HC), 1 µM GW 3965 (GW ) or 100 nM
T O901317 (T O). […]

CC(C)CCC[C@@H](C)[C@H]1CC[C@H]2[C@@H]3C[C@@H](NCCc4cnc[nH]4)[C@@]4(O)C[C@@H](O)CC[C@]4(C)[C@H]3CC[C@]12C [DDA, Dendrogenin A]
Cmax (in vivo; NSG, ip): 6.1 ± 0.95 µM | Plasma clearance (in vivo; NSG, ip): 1.68 L/h/kg | Tmax (in vivo; NSG, ip): 2 h | half-life (in vivo; NSG, ip, T1/2 absorption): 19 h | half-life (in vivo; NSG, ip, T1/2 elimination): 0.9 h | Cmax (in vivo; NSG, iv): 370 µM | Tmax (in vivo; NSG, iv): 0.002 h | clearance (in vivo; NSG, iv): 1.62 L/h/kg | half-life (in vivo; NSG, iv, T1/2 distribution): 0.1 h | half-life (in vivo; NSG, iv, T1/2 elimination): 0.6 h | Cmax (in vivo; NSG, po): 5.05 µM | Plasma clearance (in vivo; NSG, po): 1.57 L/h/kg | Tmax (in vivo; NSG, po): 3 h | half-life (in vivo; NSG, po, T1/2 absorption): 43 h | half-life (in vivo; NSG, po, T1/2 elimination): 1 h | Bioavailability (in vivo; iv): 100 % EP | Sterol amount/total sterol: 7-DHC (SKMEL-28 cells; SKMEL-28 Sh3LXRβ): 0.03± 0.02 | Sterol amount/total sterol: 8-DHC (SKMEL-28 cells; SKMEL-28 Sh3LXRβ): 1.52± 0.10 | Sterol amount/total sterol: desmosterol (SKMEL-28 cells; SKMEL-28 Sh3LXRβ): 0.01± 0.009 | Sterol amount/total sterol: lathosterol (SKMEL-28 cells; SKMEL-28 Sh3LXRβ): 0.71± 0.02 | Sterol amount/total sterol: zymostenol (SKMEL-28 cells; SKMEL-28 Sh3LXRβ): 5.78± 0.82 | Sterol amount/total sterol: 7-DHC (SKMEL-28 cells; SKMEL-28 Sh4LXRβ): 0.39± 0.09 | Sterol amount/total sterol: 8-DHC (SKMEL-28 cells; SKMEL-28 Sh4LXRβ): 4.32± 0.66 | Sterol amount/total sterol: desmosterol (SKMEL-28 cells; SKMEL-28 Sh4LXRβ): 0.02± 0.005 | Sterol amount/total sterol: zymostenol (SKMEL-28 cells; SKMEL-28 Sh4LXRβ): 6.57± 0.92 | Sterol amount/total sterol: 7-DHC (SKMEL-28 cells; SKMEL-28 shCTRL): 0.03± 0.006 | Sterol amount/total sterol: 8-DHC (SKMEL-28 cells; SKMEL-28 shCTRL): 5.81± 0.89 | Sterol amount/total sterol: desmosterol (SKMEL-28 cells; SKMEL-28 shCTRL): 0.01± 0.008 | Sterol amount/total sterol: lathosterol (SKMEL-28 cells; SKMEL-28 shCTRL): 0.41± 0.03 | Sterol amount/total sterol: zymostenol (SKMEL-28 cells; SKMEL-28 shCTRL): 2.60±0.07 | change in AML cell viability in bone marrow and spleen compared to controls (primary AML cells): −19.6 ± 7.6% | change in number of AML cells in bone marrow and spleen compared to controls (primary AML cells): −57 ± 15% | ABCA1 mRNA (B16F10 cells; B16F10, siCT): 0.4±0.1 fold | ABCG1 mRNA (B16F10 cells; B16F10, siCT): 1.4±0.1 fold | ABCG5 mRNA (B16F10 cells; B16F10, siCT): 3.5±0.1 fold | ABCG8 mRNA (B16F10 cells; B16F10, siCT): 1.6±0.2 fold | LC3A mRNA (B16F10 cells; B16F10, siCT): 2.4±0.2 fold | LC3B mRNA (B16F10 cells; B16F10, siCT): 1.7±0.1 fold | LDLR mRNA (B16F10 cells; B16F10, siCT): 4.2±0.2 fold | NOR1 mRNA (B16F10 cells; B16F10, siCT): 4.6±0.1 fold | Nur77 mRNA (B16F10 cells; B16F10, siCT): 6.8±0.2 fold | SCD1 mRNA (B16F10 cells; B16F10, siCT): 1.6±0.2 fold | SREBP1 mRNA (B16F10 cells; B16F10, siCT): 0.9±0.1 fold | SULT2b1b mRNA (B16F10 cells; B16F10, siCT): 1.6±0.1 fold | ABCA1 mRNA (B16F10 cells; B16F10, siLXRβ): 1.2±0.1 fold | ABCG1 mRNA (B16F10 cells; B16F10, siLXRβ): 0.9±0.1 fold | ABCG5 mRNA (B16F10 cells; B16F10, siLXRβ): 1.0±0.1 fold | ABCG8 mRNA (B16F10 cells; B16F10, siLXRβ): 1.2±0.1 fold | LC3A mRNA (B16F10 cells; B16F10, siLXRβ): 0.9±0.2 fold | LC3B mRNA (B16F10 cells; B16F10, siLXRβ): 1.0±0.2 fold | LDLR mRNA (B16F10 cells; B16F10, siLXRβ): 1.0±0.1 fold | NOR1 mRNA (B16F10 cells; B16F10, siLXRβ): 0.3±0.2 fold | Nur77 mRNA (B16F10 cells; B16F10, siLXRβ): 0.4±0.1 fold | SCD1 mRNA (B16F10 cells; B16F10, siLXRβ): 0.9±0.2 fold | SREBP1 mRNA (B16F10 cells; B16F10, siLXRβ): 0.9±0.2 fold | SULT2b1b mRNA (B16F10 cells; B16F10, siLXRβ): 0.8±0.1 fold

From PMC5712521, “Dendrogenin A drives LXR to trigger lethal autophagy in cancers” (Nature Communications, 2017)
